Data as given in ChEMBL document CHEMBL1127903, “Heteroaromatic Taxol Analogues: The Chemistry and Biological Activities of 3-Furyl and 3-Pyridyl Substituted Taxanes” (1994).

Tests used:
[1] = target: Tubulin alpha chain (Sus scrofa) (UniProt P02550); test: Tested for the effect on polymerization of the tubulin present by microtubule assembly assay relative to taxol as1; type: functional
B16 [2] = test: Tested for cytotoxic effect against B16 melanoma cells relative to taxol as1; type: functional, Mus musculus
B16 [3] = test: Tested for cytotoxic effect against B16 melanoma cells; type: functional, Mus musculus
[4] = target: Tubulin alpha chain (Sus scrofa) (UniProt P02550); test: Tested for the effect on polymerization of the tubulin present by microtubule assembly assay; type: functional

Chain of Tubulin alpha chain (Sus scrofa) (P02550 whole entry, looked up): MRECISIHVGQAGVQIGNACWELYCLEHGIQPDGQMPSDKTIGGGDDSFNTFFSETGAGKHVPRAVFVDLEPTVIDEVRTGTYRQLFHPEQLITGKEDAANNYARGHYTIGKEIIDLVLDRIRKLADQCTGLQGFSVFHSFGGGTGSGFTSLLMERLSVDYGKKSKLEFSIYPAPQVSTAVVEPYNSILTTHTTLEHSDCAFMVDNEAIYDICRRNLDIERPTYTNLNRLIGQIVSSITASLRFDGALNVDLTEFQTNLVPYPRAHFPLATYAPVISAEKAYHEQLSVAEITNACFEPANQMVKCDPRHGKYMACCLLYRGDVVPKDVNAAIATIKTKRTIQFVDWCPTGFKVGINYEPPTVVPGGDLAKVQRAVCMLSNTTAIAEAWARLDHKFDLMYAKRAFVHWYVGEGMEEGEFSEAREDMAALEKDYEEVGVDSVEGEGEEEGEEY

Row | ED50 ratio [1] | ED50 ratio [4] | Compound | ED50 ratio (B16 [2]) | ED50 ratio (B16 [3])
1 | 0.9 | – | CC(=O)O[C@H]1C(=O)[C@@]2(C)[C@H]([C@H](OC(=O)c3ccccc3)[C@]3(O)C[C@H](OC(=O)[C@H](O)[C@@H](NC(=O)c4ccccc4)c4ccco4)C(C)=C1C3(C)C)[C@]1(OC(C)=O)CO[C@@H]1C[C@@H]2O | 0.3 | –
2 | 0.9 | – | CC(=O)O[C@H]1C(=O)[C@@]2(C)[C@H]([C@H](OC(=O)c3ccccc3)[C@]3(O)C[C@H](OC(=O)[C@H](O)[C@@H](NC(=O)c4ccccc4)c4ccoc4)C(C)=C1C3(C)C)[C@]1(OC(C)=O)CO[C@@H]1C[C@@H]2O | 3.3 | –
3 | 0.4 | – | CC(=O)O[C@H]1C(=O)[C@@]2(C)[C@H]([C@H](OC(=O)c3ccccc3)[C@]3(O)C[C@H](OC(=O)[C@H](O)[C@@H](NC(=O)c4ccccc4)c4ccncc4)C(C)=C1C3(C)C)[C@]1(OC(C)=O)CO[C@@H]1C[C@@H]2O | 1.3 | –
4 | 0.5 | – | CC(=O)O[C@H]1C(=O)[C@@]2(C)[C@H]([C@H](OC(=O)c3ccccc3)[C@]3(O)C[C@H](OC(=O)[C@H](O)[C@@H](NC(=O)c4ccccc4)c4cccnc4)C(C)=C1C3(C)C)[C@]1(OC(C)=O)CO[C@@H]1C[C@@H]2O | 27 | –
5 | 0.7 | – | CC(=O)O[C@H]1C(=O)[C@@]2(C)[C@H]([C@H](OC(=O)c3ccccc3)[C@]3(O)C[C@H](OC(=O)[C@H](O)[C@@H](NC(=O)c4ccccc4)c4ccccn4)C(C)=C1C3(C)C)[C@]1(OC(C)=O)CO[C@@H]1C[C@@H]2O | 0.8 | –
6 | – | 1 | CC(=O)O[C@H]1C(=O)[C@@]2(C)[C@H]([C@H](OC(=O)c3ccccc3)[C@]3(O)C[C@H](OC(=O)[C@H](O)[C@@H](NC(=O)c4ccccc4)c4ccccc4)C(C)=C1C3(C)C)[C@]1(OC(C)=O)CO[C@@H]1C[C@@H]2O [PACLITAXEL] | – | 1
